pEC50: −log10 of the molar value. Where two headings read alike, the source gives them in different places.
Target: T1, F508delCFTR (Homo sapiens, UniProt P13569, DEL508-508)
T1 construct: expressed in transfected cells; host or cells: CFBE41o- (human lung derived epithelial cell line), doxycycline-inducible expression
Test: Cell Surface Expression-Horse Radish Peroxidase (CSE-HRP) assay
Assay type: cell-based
Conditions: CFBE41o-F508delCFTR-HRP cells; for Maximum % activity (with co-corrector): with co-corrector (2 μM); for Maximum % activity (with co-corrector) / Maximum % activity (without co-corrector): normalized to on-plate positive control, highest concentration 20 μM
How it was run: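 Surface F508delCFTR-HRP was read by luminol luminescence after 18–24 h compound exposure at 33 °C, without or with 2 μM co-corrector. Doses were eight 3-fold steps from 20 μM, in doxycycline-induced (0.5 μg/mL, 72 h) CFBE41o- cells. % activity was scaled to the on-plate 2 μM positive control minus DMSO; EC50 came from a variable-slope sigmoid fit.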

[1] = test compound without co-corrector, 18-24 hours at 33° C., read-out: EC50 (without co-corrector)
[2] = with co-corrector (2 μM of 3-[(2R,4R)-4-({[1-(2,2-difluoro-1,3-benzodioxol-5-yl)cyclopropyl]carbonyl}amino)-7-methoxy-3,4-dihydro-2H-chromen-2-yl]benzoic acid), read-out: EC50 (with co-corrector)

T1 sequence (P13569 with tags, fused parts or gaps DEL508-508): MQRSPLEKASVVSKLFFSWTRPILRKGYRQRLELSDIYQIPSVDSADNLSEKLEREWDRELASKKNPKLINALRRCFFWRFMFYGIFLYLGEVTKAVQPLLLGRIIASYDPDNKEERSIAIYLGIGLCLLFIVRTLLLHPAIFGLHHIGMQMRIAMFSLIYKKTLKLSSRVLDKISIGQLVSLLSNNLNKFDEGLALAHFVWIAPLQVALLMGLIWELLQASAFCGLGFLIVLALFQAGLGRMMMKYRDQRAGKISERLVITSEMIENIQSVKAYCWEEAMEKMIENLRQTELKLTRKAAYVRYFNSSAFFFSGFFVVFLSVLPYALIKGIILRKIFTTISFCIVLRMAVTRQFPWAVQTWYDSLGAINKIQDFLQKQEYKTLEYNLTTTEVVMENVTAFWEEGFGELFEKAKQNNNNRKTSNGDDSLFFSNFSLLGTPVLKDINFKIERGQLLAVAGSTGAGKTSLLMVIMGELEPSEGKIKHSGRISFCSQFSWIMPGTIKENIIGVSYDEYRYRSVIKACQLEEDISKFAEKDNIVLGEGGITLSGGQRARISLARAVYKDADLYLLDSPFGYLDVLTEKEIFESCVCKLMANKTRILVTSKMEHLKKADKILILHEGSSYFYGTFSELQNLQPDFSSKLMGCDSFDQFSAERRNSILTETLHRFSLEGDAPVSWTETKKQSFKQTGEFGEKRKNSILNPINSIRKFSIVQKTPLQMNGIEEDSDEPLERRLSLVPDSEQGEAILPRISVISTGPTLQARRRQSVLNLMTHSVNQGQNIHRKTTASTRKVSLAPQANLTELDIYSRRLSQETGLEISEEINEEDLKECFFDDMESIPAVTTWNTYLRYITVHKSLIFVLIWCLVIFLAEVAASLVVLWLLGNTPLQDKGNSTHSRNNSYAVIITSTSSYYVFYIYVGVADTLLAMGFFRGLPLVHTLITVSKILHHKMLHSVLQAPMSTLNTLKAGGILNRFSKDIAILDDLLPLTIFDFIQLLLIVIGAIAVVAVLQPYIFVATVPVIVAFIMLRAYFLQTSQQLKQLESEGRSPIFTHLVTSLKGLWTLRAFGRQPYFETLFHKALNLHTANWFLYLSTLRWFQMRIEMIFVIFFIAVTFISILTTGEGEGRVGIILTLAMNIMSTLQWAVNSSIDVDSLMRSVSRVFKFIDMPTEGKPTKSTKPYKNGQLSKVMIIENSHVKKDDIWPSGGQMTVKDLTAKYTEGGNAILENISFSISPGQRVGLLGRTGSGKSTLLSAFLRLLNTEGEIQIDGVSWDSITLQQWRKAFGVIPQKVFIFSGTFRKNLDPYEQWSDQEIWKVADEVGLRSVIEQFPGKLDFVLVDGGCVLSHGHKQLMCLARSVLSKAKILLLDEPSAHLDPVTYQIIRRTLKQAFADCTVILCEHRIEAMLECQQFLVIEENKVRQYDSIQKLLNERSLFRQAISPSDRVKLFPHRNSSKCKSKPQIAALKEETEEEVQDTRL

In the case of `COc1ncc(-c2ccccc2)cc1CO[C@H]1[C@H](C(C)(C)C)[C@@H](C(=O)O)N(C(=O)C2CCCCC2)[C@H]1c1ccccc1F` [Example 52, (2S,3R,4S,5S)-3-tert-butyl-1-(cyclohexanecarbonyl)-5-(2-fluorophenyl)-4-[(2-methoxy-5-phenylpyridin-3-yl)methoxy]pyrrolidine-2-carboxylic acid], the pEC50 [1] was 5.00 to 6.00, the pEC50 [2] was 5.00 to 6.00 and the “Maximum % activity (with co-corrector)” value was “+++ (≥350)”. For the same compound, the “Maximum % activity (without co-corrector)” value was “+ (<100)”.

For `COc1ncc(C2CCC2)cc1CO[C@H]1[C@H](C(C)(C)C)[C@@H](C(=O)O)N(C(=O)C2CCCCC2)[C@H]1c1ccccc1` [Example 53, (2S,3R,4S,5S)-3-tert-butyl-4-[(5-cyclobutyl-2-methoxypyridin-3-yl)methoxy]-1-(cyclohexanecarbonyl)-5-phenylpyrrolidine-2-carboxylic acid], the pEC50 [1] was > 6.00, the pEC50 [2] was > 6.00 and the “Maximum % activity (with co-corrector)” value was “+++ (≥350)”. The “Maximum % activity (without co-corrector)” value was “++ (≥100 and <200)”.

With `COc1ncc(C2CCCC2)cc1CO[C@H]1[C@H](C(C)(C)C)[C@@H](C(=O)O)N(C(=O)C2CCCCC2)[C@H]1c1ccccc1` [Example 54, (2S,3R,4S,5S)-3-tert-butyl-1-(cyclohexanecarbonyl)-4-[(5-cyclopentyl-2-methoxypyridin-3-yl)methoxy]-5-phenylpyrrolidine-2-carboxylic acid] the pEC50 [1] was > 6.00, the pEC50 [2] was > 6.00 and the “Maximum % activity (with co-corrector)” value was “+++ (≥350)”. For the same compound, the “Maximum % activity (without co-corrector)” value was “++ (≥100 and <200)”.

`COc1ncc(C2CC3CCC2C3)cc1CO[C@H]1[C@H](C(C)(C)C)[C@@H](C(=O)O)N(C(=O)C2CCCCC2)[C@H]1c1ccccc1` (stereo partly drawn) [Example 55, (2S,3R,4S,5S)-4-{[5-(bicyclo[2.2.1]heptan-2-yl)-2-methoxypyridin-3-yl]methoxy}-3-tert-butyl-1-(cyclohexanecarbonyl)-5-phenylpyrrolidine-2-carboxylic acid] was tested, and the pEC50 [1] was 5.00 to 6.00, the pEC50 [2] was 5.00 to 6.00 and the “Maximum % activity (with co-corrector)” value was “+++ (≥350)”. For the same compound, the “Maximum % activity (without co-corrector)” value was “++ (≥100 and <200)”.

For `COc1ncc(C2CCC2)cc1CO[C@H]1[C@H](C(C)(C)C)[C@@H](C(=O)O)N(C(=O)C2CCCCC2)[C@H]1c1ccccc1F` [Example 56, (2S,3R,4S,5S)-3-tert-butyl-4-[(5-cyclobutyl-2-methoxypyridin-3-yl)methoxy]-1-(cyclohexanecarbonyl)-5-(2-fluorophenyl)pyrrolidine-2-carboxylic acid], the pEC50 [1] was > 6.00, the pEC50 [2] was > 6.00 and the “Maximum % activity (with co-corrector)” value was “+++ (≥350)”. The “Maximum % activity (without co-corrector)” value was “++ (≥100 and <200)”.

With `COc1ncc(C2CCCC2)cc1CO[C@H]1[C@H](C(C)(C)C)[C@@H](C(=O)O)N(C(=O)C2CCCCC2)[C@H]1c1ccccc1F` [Example 57, (2S,3R,4S,5S)-3-tert-butyl-1-(cyclohexanecarbonyl)-4-[(5-cyclopentyl-2-methoxypyridin-3-yl)methoxy]-5-(2-fluorophenyl)pyrrolidine-2-carboxylic acid] the pEC50 [1] was 5.00 to 6.00, the pEC50 [2] was 5.00 to 6.00 and the “Maximum % activity (with co-corrector)” value was “+++ (≥350)”. The “Maximum % activity (without co-corrector)” value was “++ (≥100 and <200)”.

In the case of `COc1ncc(C2CC3CCC2C3)cc1CO[C@H]1[C@H](C(C)(C)C)[C@@H](C(=O)O)N(C(=O)C2CCCCC2)[C@H]1c1ccccc1F` (stereo partly drawn) [Example 58, (2S,3R,4S,5S)-4-{[5-(bicyclo[2.2.1]heptan-2-yl)-2-methoxypyridin-3-yl]methoxy}-3-tert-butyl-1-(cyclohexanecarbonyl)-5-(2-fluorophenyl)pyrrolidine-2-carboxylic acid], the pEC50 [1] was > 6.00, the pEC50 [2] was > 6.00 and the “Maximum % activity (with co-corrector)” value was “+++ (≥350)”. For the same compound, the “Maximum % activity (without co-corrector)” value was “++ (≥100 and <200)”.

With `COc1ncc(N2CCCC2)cc1CO[C@H]1[C@H](C(C)(C)C)[C@@H](C(=O)O)N(C(=O)C2CCCCC2)[C@H]1c1ccccc1F` [Example 59, (2S,3R,4S,5S)-3-tert-butyl-1-(cyclohexanecarbonyl)-5-(2-fluorophenyl)-4-{[2-methoxy-5-(pyrrolidin-1-yl)pyridin-3-yl]methoxy}pyrrolidine-2-carboxylic acid] the pEC50 [1] was 5.00 to 6.00, the pEC50 [2] was 5.00 to 6.00 and the “Maximum % activity (with co-corrector)” value was “++ (≥150 and <350)”. The “Maximum % activity (without co-corrector)” value was “+ (<100)”.

`COc1ncc(C(C)(C)C)cc1CO[C@H]1[C@H](C(C)(C)C)[C@@H](C(=O)O)N(C(=O)C2CCCCC2)[C@H]1c1ccccc1` [Example 60, (2S,3R,4S,5S)-3-tert-butyl-4-[(5-tert-butyl-2-methoxypyridin-3-yl)methoxy]-1-(cyclohexanecarbonyl)-5-phenylpyrrolidine-2-carboxylic acid] was tested, and the pEC50 [1] was > 6.00, the pEC50 [2] was > 6.00 and the “Maximum % activity (with co-corrector)” value was “+++ (≥350)”. The “Maximum % activity (without co-corrector)” value was “++ (≥100 and <200)”.

`COc1ncc(C(C)(C)C)cc1CO[C@H]1[C@H](C(C)(C)C)[C@@H](C(=O)O)N(C(=O)[C@@H]2CCC[C@@H](OC)C2)[C@H]1c1ccccc1` [Example 61, (2S,3R,4S,5S)-3-tert-butyl-4-[(5-tert-butyl-2-methoxypyridin-3-yl)methoxy]-1-[(1R,3R)-3-methoxycyclohexane-1-carbonyl]-5-phenylpyrrolidine-2-carboxylic acid] was tested, and the pEC50 [1] was > 6.00, the pEC50 [2] was > 6.00 and the “Maximum % activity (with co-corrector)” value was “+++ (≥350)”. For the same compound, the “Maximum % activity (without co-corrector)” value was “+++ (≥200)”.

With `COc1ncc(C(C)(C)C)cc1CO[C@H]1[C@H](C(C)(C)C)[C@@H](C(=O)O)N(C(=O)C2CCCCC2)[C@H]1c1ccccc1F` [Example 62, (2S,3R,4S,5S)-3-tert-butyl-4-[(5-tert-butyl-2-methoxypyridin-3-yl)methoxy]-1-(cyclohexanecarbonyl)-5-(2-fluorophenyl)pyrrolidine-2-carboxylic acid] the pEC50 [1] was > 6.00, the pEC50 [2] was > 6.00 and the “Maximum % activity (with co-corrector)” value was “+++ (≥350)”. For the same compound, the “Maximum % activity (without co-corrector)” value was “++ (≥100 and <200)”.

For `COc1ncc(C(C)(C)C)cc1CO[C@H]1[C@H](C(C)(C)C)[C@@H](C(=O)O)N(C(=O)OC(C)C)[C@H]1c1ccccc1` [Example 63, (2S,3R,4S,5S)-3-tert-butyl-4-[(5-tert-butyl-2-methoxypyridin-3-yl)methoxy]-5-phenyl-1-{[(propan-2-yl)oxy]carbonyl}pyrrolidine-2-carboxylic acid], the pEC50 [1] was 5.00 to 6.00, the pEC50 [2] was 5.00 to 6.00 and the “Maximum % activity (with co-corrector)” value was “+++ (≥350)”. For the same compound, the “Maximum % activity (without co-corrector)” value was “++ (≥100 and <200)”.

`COc1ncc(C(F)(F)F)cc1CO[C@H]1[C@H](C(C)(C)C)[C@@H](C(=O)O)N(C(=O)OC(C)C)[C@H]1c1ccccc1` [Example 64, (2S,3R,4S,5S)-3-tert-butyl-4-{[2-methoxy-5-(trifluoromethyl)pyridin-3-yl]methoxy}-5-phenyl-1-{[(propan-2-yl)oxy]carbonyl}pyrrolidine-2-carboxylic acid] was tested, and the pEC50 [1] was 5.00 to 6.00, the pEC50 [2] was 5.00 to 6.00 and the “Maximum % activity (with co-corrector)” value was “+++ (≥350)”. The “Maximum % activity (without co-corrector)” value was “++ (≥100 and <200)”.

In the case of `COc1ncc(-c2ccc(C)cc2F)cc1CO[C@H]1[C@H](C(C)(C)C)[C@@H](C(=O)O)N(C(=O)OC(C)C)[C@H]1c1ccccc1` [Example 65, (2S,3R,4S,5S)-3-tert-butyl-4-{[5-(2-fluoro-4-methylphenyl)-2-methoxypyridin-3-yl]methoxy}-5-phenyl-1-{[(propan-2-yl)oxy]carbonyl}pyrrolidine-2-carboxylic acid], the pEC50 [1] was > 6.00, the pEC50 [2] was > 6.00 and the “Maximum % activity (with co-corrector)” value was “+++ (≥350)”. The “Maximum % activity (without co-corrector)” value was “+ (<100)”.

In the case of `COc1ncc(-c2ccccc2F)cc1CO[C@H]1[C@H](C(C)(C)C)[C@@H](C(=O)O)N(C(=O)OC(C)C)[C@H]1c1ccccc1` [Example 66, (2S,3R,4S,5S)-3-tert-butyl-4-{[5-(2-fluorophenyl)-2-methoxypyridin-3-yl]methoxy}-5-phenyl-1-{[(propan-2-yl)oxy]carbonyl}pyrrolidine-2-carboxylic acid], the pEC50 [1] was > 6.00, the pEC50 [2] was 5.00 to 6.00 and the “Maximum % activity (with co-corrector)” value was “+++ (≥350)”. The “Maximum % activity (without co-corrector)” value was “+ (<100)”.

In the case of `COc1ncc(-c2ccc(F)cc2C)cc1CO[C@H]1[C@H](C(C)(C)C)[C@@H](C(=O)O)N(C(=O)OC(C)C)[C@H]1c1ccccc1` [Example 67, (2S,3R,4S,5S)-3-tert-butyl-4-{[5-(4-fluoro-2-methylphenyl)-2-methoxypyridin-3-yl]methoxy}-5-phenyl-1-{[(propan-2-yl)oxy]carbonyl}pyrrolidine-2-carboxylic acid], the pEC50 [1] was > 6.00, the pEC50 [2] was > 6.00 and the “Maximum % activity (with co-corrector)” value was “+++ (≥350)”. The “Maximum % activity (without co-corrector)” value was “+ (<100)”.

For `COc1ncc(-c2ccc(F)cc2F)cc1CO[C@H]1[C@H](C(C)(C)C)[C@@H](C(=O)O)N(C(=O)OC(C)C)[C@H]1c1ccccc1` [Example 68, (2S,3R,4S,5S)-3-tert-butyl-4-{[5-(2,4-difluorophenyl)-2-methoxypyridin-3-yl]methoxy}-5-phenyl-1-{[(propan-2-yl)oxy]carbonyl}pyrrolidine-2-carboxylic acid], the pEC50 [1] was > 6.00, the pEC50 [2] was 5.00 to 6.00 and the “Maximum % activity (with co-corrector)” value was “+++ (≥350)”. The “Maximum % activity (without co-corrector)” value was “+ (<100)”.

— patent US10399940B2, “Substituted pyrrolidines and methods of use” (AbbVie S.à.r.l., priority 2016, dated 2019)
